Results published in patent publication US20120214173A1, “Methods of Identifying Modulators of an Ehd Polypeptide” (priority 2007, published 2012).
Changes are numbered by the printed parent chain. Entries after “also recorded” stand apart in the source; their conditions may differ.

How the values were obtained:
EHD2 = target: T1, EHD2 (Mus musculus, UniProt Q8BH64); experiment: ITC nucleotide binding to EHD2; settings: ITC at 10° C.
T1 construct: Mouse EHD2 full-length protein and all mutants were expressed as N-terminal His-fusions followed by a PreScission cleavage site; His (N, cleaved yes); made in house; host or cells: Escherichia coli BL21 DE3 Rosetta
T1 sequence (Q8BH64 1-543): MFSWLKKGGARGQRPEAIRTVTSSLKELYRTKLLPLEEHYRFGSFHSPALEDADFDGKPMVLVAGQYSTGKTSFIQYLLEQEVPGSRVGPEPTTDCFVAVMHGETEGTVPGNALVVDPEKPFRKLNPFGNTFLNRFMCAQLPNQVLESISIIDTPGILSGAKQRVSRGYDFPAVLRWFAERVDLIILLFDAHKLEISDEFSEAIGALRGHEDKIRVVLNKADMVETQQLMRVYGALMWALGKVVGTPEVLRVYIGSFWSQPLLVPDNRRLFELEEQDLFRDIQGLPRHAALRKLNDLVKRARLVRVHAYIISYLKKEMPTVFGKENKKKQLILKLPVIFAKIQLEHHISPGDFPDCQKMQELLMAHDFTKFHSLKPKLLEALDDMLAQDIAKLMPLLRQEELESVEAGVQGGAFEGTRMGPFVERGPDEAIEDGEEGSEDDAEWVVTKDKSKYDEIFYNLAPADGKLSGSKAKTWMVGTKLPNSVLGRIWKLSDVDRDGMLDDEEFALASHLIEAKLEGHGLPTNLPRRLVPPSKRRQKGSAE
Experimental: (§1) Amino acid numbering corresponds to mouse EHD2. b, EHD2 binds to adenine nucleotides, as determined by ITC. For clarity, ΔΔH=ΔHn−ΔH1 is plotted. […] Images were acquired close to the basal cell surface. f, Nucleotide hydrolysis was measured by HPLC in the absence (empty symbols) or presence of Folch liposomes (filled symbols). Data represent mean and standard deviation for two (intrinisic reactions) or three (stimulated reactions) independent experiments.
(§2) ITC measurements were performed at 10° C. in 20 mM HEPES (pH 7.5), 300 mM NaCl, 2 mM MgCl2. Liposome binding assays were performed as described previously (www.endocytosis.org). Multiple turnover ATPase assays were performed in 20 mM HEPES (pH 7.5), 135 mM NaCl, 15 mM KCl, 1 mM MgCl2 at 30° C. with 10 μM EHD2 (or mutants) as enzyme and 100 μM ATP as substrate, in the absence or presence of 1 mg/ml Folch liposomes (Sigma-Aldrich).
Mouse full-length EHD2 was expressed in bacteria and purified to homogeneity (FIG. 5). The purified protein was nucleotide-free as judged by HPLC analysis. […] It was previously reported that EHDs—despite having a predicted G-domain—bind to adenine nucleotides^15. […] We still refer to this domain as a G-domain because the sequence and fold (see below) are clearly similar to other G-domains. […] Using synthetic liposomes containing various different phosphatidyl-inositols (PI) (FIG. 1c) we observed best binding to liposomes containing PI(4,5)bisphosphate (PIP2).

EHD2(T72A) = target: T2, EHD2(T72A) (Mus musculus, UniProt Q8BH64, T72A); experiment: ITC nucleotide binding to EHD2(T72A) P-loop mutant; settings: ITC at 10° C.
T2 construct: Mouse EHD2 full-length protein and all mutants were expressed as N-terminal His-fusions followed by a PreScission cleavage site; His (N, cleaved yes); made in house; host or cells: Escherichia coli BL21 DE3 Rosetta
T2 sequence (Q8BH64 1-543 T72A): T1 sequence (Q8BH64 1-543) with T72A
Experimental: as §1, §2
Mouse full-length EHD2 was expressed in bacteria and purified to homogeneity (FIG. 5). The purified protein was nucleotide-free as judged by HPLC analysis. […] It was previously reported that EHDs—despite having a predicted G-domain—bind to adenine nucleotides^15. […] We still refer to this domain as a G-domain because the sequence and fold (see below) are clearly similar to other G-domains. […]

T94A mutant of EHD2 = target: T3, T94A mutant of EHD2 (Mus musculus, UniProt Q8BH64, T94A); experiment: ITC nucleotide binding to EHD2 T94A mutant; settings: ITC as in FIG. 1b
T3 construct: Mouse EHD2 full-length protein and all mutants were expressed as N-terminal His-fusions followed by a PreScission cleavage site; His (N, cleaved yes); made in house; host or cells: Escherichia coli BL21 DE3 Rosetta
T3 sequence (Q8BH64 1-543 T94A): T1 sequence (Q8BH64 1-543) with T94A
Experimental: Nucleotide hydrolysis was measured as described in FIG. 1f. In vitro tubulation activity of PS liposomes was analysed as described in FIG. 1d. f, EGFP-tagged mutants were over-expressed in HeLa cells. […] For each construct, three independent experiments with ≈50 cells/experiments were analysed.
as §2
In small GTPases, the role of positioning the water molecule is assigned to a catalytic glutamine from switch II^26. We studied the role of ATP hydrolysis to gain insights into the function of EHD2 in vivo. […] To confirm the role of ATP hydrolysis in EHD function we re-introduced a catalytic glutamine in the active site, at the position normally found for small GTPases (I157Q). […] Many of these puncta were highly mobile as determined by live-cell microscopy.

n (fitted ITC value), nucleotide binding to EHD2 (EHD2): 0.96
Kd (EHD2; 20 mM HEPES (pH 7.5), 300 mM NaCl, 2 mM MgCl2, read-out: affinity to EHD2 determined by ITC): 13 ± 3 µM
affinity of the T94A mutant to ATP-γ-S by ITC (T94A mutant of EHD2): nearly wild-type affinity
Compound: Nc1ncnc2c1ncn2[C@@H]1O[C@H](COP(=O)(O)OP(=O)(O)OP(O)(O)=S)[C@@H](O)[C@H]1O [ATP-γ-S]
binding to EHD2(T72A) by ITC (EHD2(T72A)): no binding observed; also recorded: prevented binding
